Data on twelve compounds can be found in patent publication US20120022026A1, “METHOD OF TREATING CANCER” (ERASMUS UNIVERSITY MEDICAL CENTER ROTTERDAM, priority 2009, published 2012).

The pIC50 is the IC50 on a negative log10 scale, so that one unit is a factor of ten. The pEC50 is the EC50 on a negative log10 scale, so that one unit is a factor of ten. One may read the pKi as the Ki on a negative log10 scale, so that one unit is a factor of ten.

pEC50, pIC50, pKi: −log10 of the molar value. Like-named read-outs stand apart in the source and are kept apart here. Residues, ends and D or L forms follow the SMILES beside them. *: point of attachment. Cbz = O=C(OCc1ccccc1)*

One test deals with PARP. The conditions noted are these: cited from earlier work.
For test [1], the system named is BRCA2. In words: Immunoblotting of BRCA2 in HeLa cells under mild hyperthermia. The format is cell-based. The note with it: exposed to 41° C. in presence of 10 μM MG132 (FIG. 2C). As for the experimental part: (§1) Embryonic stem (ES) cells were cultured on gelatin-coated dishes in a 1:1 mixture of Dulbecco's modified Eagle's medium (DMEM) and buffalo rat liver conditioned medium, supplemented with 10% FBS (Hyclone), 0.1 mM nonessential amino acids (Biowhittaker), […] β-mercaptoethanol (Sigma) and 500 U ml-1 leukemia inhibitory factor. Other cells were cultured in following media, supplemented with 10% (v/v) FCS and streptomycin/penicillin: 1:1 mixture of DMEM and Ham's F10 (HeLa), DMEM (human melanoma [BLM], osteosarcoma [U2OS], cervix carcinoma cells), L-15 (human squamous lung carcinoma [SW-1573]), Eagle's MEM (mouse osteosarcoma [MOS], rat rhabdomyosarcoma [R1]). Cells were maintained at 37° C. in an atmosphere containing 5% (HeLa, BLM), 10% (U2OS, cervix carcinoma cells), 2% (R1) or 0% (SW-1573) CO2. Patients with cervical cancer expressed written informed consent to provide fresh biopsies during an investigation under general anesthesia, and use the tumor specimens for this study. This study was approved by the medical ethical committee of the AMC (MEC #03/137). […]
(§2) Cells were lysed in SDS sample buffer (2% SDS, 10% glycerol, 60 mM Tris-HCl pH 6.8). […] Protein concentration was determined by the Lowry protein assay, extracts were supplemented with 0.5% […] and 0.02% bromophenol blue. […]
On the technique in general: In western blotting, separated proteins are transferred to a membrane and probed.

The test system of a further test is R1 cells. In words: Clonogenic assay, R1 cells with mild hyperthermia. The format is cell-based, rat. The conditions noted are these: R1, 41° C.; for clonogenic survival: combination of 100 μM NU1025 and 100 nM 17-DMAG (FIG. 4B). As for the experimental part: (§3) Embryonic stem (ES) cells were cultured on gelatin-coated dishes in a 1:1 mixture of Dulbecco's modified Eagle's medium (DMEM) and buffalo rat liver conditioned medium, supplemented with 10% FBS (Hyclone), 0.1 mM nonessential amino acids (Biowhittaker), […] β-mercaptoethanol (Sigma) and 500 U ml-1 leukemia inhibitory factor. Other cells were cultured in following media, supplemented with 10% (v/v) FCS and streptomycin/penicillin: 1:1 mixture of DMEM and Ham's F10 (HeLa), DMEM (human melanoma [BLM], osteosarcoma [U2OS], cervix carcinoma cells), L-15 (human squamous lung carcinoma [SW-1573]), Eagle's MEM (mouse osteosarcoma [MOS], rat rhabdomyosarcoma [R1]). Cells were maintained at 37° C. in an atmosphere containing 5% (HeLa, BLM), 10% (U2OS, cervix carcinoma cells), 2% (R1) or 0% (SW-1573) CO2. Patients with cervical cancer expressed written informed consent to provide fresh biopsies during an investigation under general anesthesia, and use the tumor specimens for this study. This study was approved by the medical ethical committee of the AMC (MEC #03/137). The biopsies were minced using scalpel, then incubated in Liberase Blendzyme enzyme cocktail (Roche) in DMEM for 60 min at 37° C. and plated on glass coverslips in fresh culture medium. All incubations at elevated temperature were performed in a heated waterbath or in a water-filled cuvette placed in an incubator set to required temperature, in an atmosphere containing appropriate CO2 concentration.
The following inhibitors were used at the indicated final concentrations: 17-DMAG, 100 nM (Sigma-Aldrich), NU1025, 100 μM (Sigma-Aldrich), MG-132, 10 μM (Calbiochem).
(§4) In experiments involving NU1025 or irradiation, cells were trypsinized, counted and plated at appropriate concentrations into 60- or 35 mm dishes. […] Cells were then incubated for 7-14 days, fixed, stained and colonies exceeding 50 cells were counted. […] In experiments involving a combination of NU1025 and 17-DMAG, cells were first treated as indicated and subsequently trypsinized, counted and plated at various concentrations. […]

For test [2], the system named is HR-mediated gene targeting. In words: Gene targeting efficiency assay in ES cells. The note with it: mouse ES cells, 41° C. plus 100 nM 17-DMAG vs heat without 17-DMAG or 17-DMAG at 37° C. (FIG. 1C). The format is cell-based. The protocol:
as §3, with “All incubations at elevated temperature were performed in a heated waterbath or in a water-filled cuvette placed in an incubator set to required temperature, in an atmosphere containing appropriate CO2 concentration.” left out

Test [3] concerns BRCA2. The test can be described thus: Immunoblotting of BRCA2 in BLM cells under mild hyperthermia. Type of test: cell-based, human. The note with it: hyperthermia plus 100 nM 17-DMAG vs heat without 17-DMAG or 17-DMAG at 37° C. (FIG. 4A). The protocol:
as §1, §2

The test system of a further test is SW-1573 cells. In words: Clonogenic assay, SW-1573 cells. The format is cell-based, human. The protocol: as §1, with “CO2.” for “CO2. Patients with cervical cancer expressed written informed consent to provide fresh biopsies during an investigation under general anesthesia, and use the tumor specimens for this study. This study was approved by the medical ethical committee of the AMC (MEC #03/137).”
as §4

The test system of the next test is MOS cells. In words: Clonogenic assay, MOS cells. Type of test: cell-based, mouse. The protocol: as §1, with “CO2.” for “CO2. Patients with cervical cancer expressed written informed consent to provide fresh biopsies during an investigation under general anesthesia, and use the tumor specimens for this study. This study was approved by the medical ethical committee of the AMC (MEC #03/137).”
as §4

A further test relates to U2OS cells. The test can be described thus: Clonogenic assay, U2OS cells with mild hyperthermia. The format is cell-based, human. The conditions noted are these: 41° C., 100 μM NU1025 (FIG. 3A). As for the experimental part:
as §1, with “CO2.” for “CO2. Patients with cervical cancer expressed written informed consent to provide fresh biopsies during an investigation under general anesthesia, and use the tumor specimens for this study. This study was approved by the medical ethical committee of the AMC (MEC #03/137).”
as §4

The next test has as its target recombinant PARP-1 (Homo sapiens, UniProt P09874). The note with it: recombinant PARP-1, cell-free assay; read-out: competitive inhibition Ki; cited from earlier work.
The target in a further test is PARP-2 (Homo sapiens, UniProt Q9UGN5). The note with it: cited from earlier work.
PARP-2, sequence (Q9UGN5 whole entry, species assumed, canonical isoform): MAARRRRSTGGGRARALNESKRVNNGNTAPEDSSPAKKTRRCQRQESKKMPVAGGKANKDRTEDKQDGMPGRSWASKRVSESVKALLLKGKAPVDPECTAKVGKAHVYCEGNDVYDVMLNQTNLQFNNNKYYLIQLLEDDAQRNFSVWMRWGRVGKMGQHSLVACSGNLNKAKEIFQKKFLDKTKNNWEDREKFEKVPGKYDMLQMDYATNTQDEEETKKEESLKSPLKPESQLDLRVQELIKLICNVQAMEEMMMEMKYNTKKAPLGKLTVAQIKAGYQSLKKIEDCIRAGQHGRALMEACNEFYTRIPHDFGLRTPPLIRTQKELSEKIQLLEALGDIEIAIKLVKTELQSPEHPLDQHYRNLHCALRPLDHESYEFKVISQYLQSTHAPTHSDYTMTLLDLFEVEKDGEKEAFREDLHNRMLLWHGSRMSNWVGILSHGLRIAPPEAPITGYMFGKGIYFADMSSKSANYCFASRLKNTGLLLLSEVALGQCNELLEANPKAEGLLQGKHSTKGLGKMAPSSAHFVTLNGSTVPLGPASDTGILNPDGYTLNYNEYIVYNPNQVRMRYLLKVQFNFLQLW
[4] abbreviates: PARP inhibitor potency as listed, isoform not stated.

recombinant PARP-1, sequence (P09874 whole entry, species assumed): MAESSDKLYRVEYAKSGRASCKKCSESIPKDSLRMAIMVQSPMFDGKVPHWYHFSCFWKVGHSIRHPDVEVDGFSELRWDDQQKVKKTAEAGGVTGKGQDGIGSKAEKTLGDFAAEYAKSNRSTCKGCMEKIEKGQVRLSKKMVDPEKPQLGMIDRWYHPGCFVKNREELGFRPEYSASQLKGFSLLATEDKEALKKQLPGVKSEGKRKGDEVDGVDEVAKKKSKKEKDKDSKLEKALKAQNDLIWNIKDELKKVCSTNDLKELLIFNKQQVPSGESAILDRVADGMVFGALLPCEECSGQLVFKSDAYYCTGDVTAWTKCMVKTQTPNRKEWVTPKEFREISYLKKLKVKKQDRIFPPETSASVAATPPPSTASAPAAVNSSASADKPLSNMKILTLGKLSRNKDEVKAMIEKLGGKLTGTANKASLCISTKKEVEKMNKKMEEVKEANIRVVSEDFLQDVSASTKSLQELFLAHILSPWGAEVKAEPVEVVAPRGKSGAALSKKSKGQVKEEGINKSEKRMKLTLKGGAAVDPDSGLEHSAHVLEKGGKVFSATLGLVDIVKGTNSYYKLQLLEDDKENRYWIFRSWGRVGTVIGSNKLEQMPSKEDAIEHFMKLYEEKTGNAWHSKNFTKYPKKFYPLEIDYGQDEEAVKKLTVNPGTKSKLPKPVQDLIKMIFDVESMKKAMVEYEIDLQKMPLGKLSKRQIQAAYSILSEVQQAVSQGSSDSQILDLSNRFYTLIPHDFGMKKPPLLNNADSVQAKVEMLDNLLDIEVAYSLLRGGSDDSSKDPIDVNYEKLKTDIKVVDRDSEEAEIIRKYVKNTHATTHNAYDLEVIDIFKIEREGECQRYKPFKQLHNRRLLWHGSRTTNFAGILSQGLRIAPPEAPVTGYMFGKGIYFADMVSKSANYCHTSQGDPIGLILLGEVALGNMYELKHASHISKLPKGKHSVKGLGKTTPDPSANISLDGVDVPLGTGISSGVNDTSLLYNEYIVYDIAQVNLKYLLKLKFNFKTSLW

Regarding `Nc1ncnc2c1ncn2C1OC(C(=O)N2CCN(CC(=O)Nc3cccc4c3CNC4=O)CC2)C(O)C1O` [EB-47, 1-piperazineacetamide,4-[1-(6-amino-9H-purin-9-yl)-1-deoxy-6-D-ribofuranuron]-N-(2,3-dihydro-1H-isoindol-4-yl)-1-one], the pIC50 in the test with PARP (setting [4]) was 7.35.
Take `O=C1N=C2SCC=C2c2ccccc21` [TIQ-A, thieno[2,3-c]isoquinolin-5-one]: the pIC50 with PARP (setting [4]) was 6.35.
In the case of `NC(=O)c1cccc(N)c1` [3-ABA, 3-aminobenzamide], the pEC50 with PARP (PARP inhibitor potency as listed) is […].
As to `CC(C)C[C@@H](C=O)NC(=O)[C@H](CC(C)C)NC(=O)[C@H](CC(C)C)NC(=O)OCc1ccccc1` [MG132] (Cbz-Leu-Leu-Leu-aldehyde), the “BRCA2 levels on hyperthermia” value with BRCA2 [1] is given as “no decrease of BRCA2 levels”.
In the case of `O=C1NCCc2c(OCCCCN3CCCCC3)cccc21` [DPQ, 3,4-dihydro-5[4-(1-piperindinyl)butoxy]-1(2H)-isoquinoline], in the test with PARP (setting [4]), the pIC50 is 7.40.
Turning to `CO[C@H]1/C=C\C=C(/C)C(=O)NC2=CC(=O)C(NCCN(C)C)=C(C[C@@H](C)C[C@H](OC)[C@H](O)[C@@H](C)/C=C(\C)[C@@H]1OC(N)=O)C2=O` [17-DMAG, 17-dimethylaminoethylamino-17-demethoxy-geldanamycin], the clonogenic survival result in the test on R1 cells is “dramatically reduced”. Besides, the “efficiency of HR-mediated gene targeting” value in [2] is on record as “further reduced”. In addition, the “levels of BRCA2 protein” value in the test on BRCA2 [3] is reported as “further reduced”.
As for `Oc1cccc2c(O)nccc12` [IQD, 1,5-dihydroxyisoquinoline], the pIC50 in the test with PARP (setting [4]) was 6.41.
For `Nc1ccc2c3c(cccc13)C(=O)NC2=O` [4-ANI, 4-amino-1,8-naphthalimide], the pIC50 in the test on PARP is 6.74.
Turning to `Cc1nc2c(O)cccc2c(=O)[nH]1` [NU1025, 8-hydroxy-2-methylquinazoline-4-one], the “sensitivity to inhibitor alone” value in the test with SW-1573 cells (SW-1573, NU1025 alone, data not shown) is recorded as “insensitive”; with MOS cells (NU1025 alone, data not shown), “insensitive”. The “survival of hyperthermia-treated cells” value in the test with SW-1573 cells (SW-1573, hyperthermia plus NU1025, data not shown) is “did not reduce survival”; with MOS cells (hyperthermia plus NU1025, data not shown), “did not reduce survival”. Besides, the “clonogenic survival compared to hyperthermia alone” value in the test with R1 cells (100 μM NU1025 (FIG. 3B)) and in the test with U2OS cells was “decrease in clonogenic survival” each time. Besides, the clonogenic survival result in the test with R1 cells is on record as “dramatically reduced”. Besides, in the test with PARP, the pIC50 is 6.40.
On to `CN(C)c1ccc(O)c2c1C[C@H]1C[C@H]3[C@H](N(C)C)C(O)=C(C(N)=O)C(=O)[C@@]3(O)C(O)=C1C2=O` [minocycline], for which the pKi on recombinant PARP-1 is 7.86.
On to `NC(=O)c1cccc2ncc(-c3ccc(Cl)cc3)nc12` [3-(4-chlorophenyl)quinoxaline-5-carboxamide], for which the pIC50 on PARP-2 was 8.15.
In the case of `Cc1nc2c(c(=O)[nH]1)CSCC2` [DR2313, 2-methyl-3,5,7,8-tetrahydrothiopyrano[4,3-d]pyrimidine-4-one], the pIC50 on PARP-2 was 6.62.
